These results are taken from patent US11369590B2, “PSMA binding ligand-linker conjugates and methods for using” (Purdue Research Foundation, priority 2007, dated 2022).

In one data set the target is PSMA (Homo sapiens, UniProt Q04609). Particulars: PSMA ligand of formula drawing 51, R^1 as drawn; cited from earlier work.
The test system of data set [1] is LNCaP cells. Particulars: 1 hour. How it is done:
Quantification of PSMA Molecules on LNCaP Cells. […] Cells were rinsed three times with 1.0 mL of RPMI. Cells were lysed with tris-buffer, transferred to individual gamma scintigraphy vials, and radioactivity was counted. The plot of cell bound radioactivity verses concentration of radiolabeled compound was used to calculate number of PSMA/LNCaP cell. The radioactivity of a 30 nM sample of SK28-99 mTc (20 uL) was counted. At 4° C. (to prevent endocytosis of PSMA), the number of moles in the 30 nM sample=30 nM×20 uL=(30×10-9 mol/L)×(20×10-6 L)=6×10-13 mol.

Data set [2] relates to LNCaP tumors. The data set can be described thus: In vivo imaging of LNCaP tumors in mouse using DUPA-99mTc. How it is done:
(§1) In Vivo Imaging of Tumors in Mouse Using dupa-99 mTc. To further establish the specificity of our DUPA conjugates for prostate cancer cells, DUPA-99 mTc was injected intraperitoneally (i.p.) into athymic nude mice bearing LNCaP tumors on their shoulders. After 4 h to allow for clearance of unbound conjugate, the distribution of the retained DUPA-99 mTc was imaged by gamma scintigraphy. […] In vivo specificity of the PSMA-targeted imaging agent was further tested by prior administration of excess PMPA to block all PSMA sites before DUPA-99 mTc administration. […] To further document this specificity, the radiotracer was also administered to two PSMA negative mouse xenograft models [A549 (a human lung cancer cell line) and KB (a human nasopharyngeal cancer cell line)], and again whole body images were taken. […] These studies thus confirm that very little DUPA-99 mTc binding occurs to sites unrelated to PSMA in vivo.
(§2) Overlay of whole-body radioimages on white light images of mice bearing LNCaP tumors that were treated with DUPA-99 mTc in the absence 7D(a, c) or presence 7D(b, d) of 100-fold molar excess PMPA. Overlay of radioimages on white light images were also obtained of mice bearing an A549 tumor 7D(e) or a KB tumor 7D(f) that were similarly treated with DUPA-99 mTc. Except in images 7D(a) and 7D(b), kidneys were shielded with lead pads. […]

The subject of data set [3] is LNCaP tumors. In words: In vivo imaging of tumors in mouse using PSMA-99mTc compounds. The conditions noted are these: mice with LNCaP tumors, 4 hours after intraperitoneal injection. How it is done:
In Vivo Imaging of Tumors in Mouse Using PSMA-99 mTc. When tumors reached a volume of between 500-600 mm3, 99 mTc-labeled compounds (e.g. SK28-99 mTc, SK60-99 mTc, etc) prepared as described, were administered through intraperitoneal injection […]. Four hours later, animals were euthanized and blood was taken by cardio punch and transferred to individual gamma scintigraphy vials per each animal. The imaging experiments were carried out using either a Kodak or gamma scintigraphic camera imager (FIGS. 6A, 6B, 6C, 7A, 7B and 7C). [Note: PMPA was injected 30 minutes before injecting SK28 -99 mTc.
FIGS. 6A, 6B, and 6C show images of mice with human LNCaP tumors using SK28-99 mTc (radiolabeled 14 Atom spacer).

Another data set relates to A549 tumors. Particulars: mouse, in vivo. How it is done: as §1, §2
The subject of the next data set is KB tumors. The conditions noted are these: mouse, in vivo. How it is done: as §1, §2
The test system of data set [4] is LNCaP cells. The data set can be described thus: [3H]-Thymidine incorporation assay, toxicity to LNCaP cells in culture. Particulars: LNCaP cells pulsed 2 h, additional 66 h in fresh medium. The data set is classed as cell-based, human. The method, then:
Evaluation of a PSMA-Targeted Therapeutic Agent in Vitro. Analysis of SK71 (FIG. 12A), SK77 (FIG. 12B), SK37 (FIG. 12C), and SK45 (FIG. 12D), toxicity to LNCaP cells in culture. LNCaP cells were pulsed for 2 h with increasing concentrations of SK71 or SK77 in the presence (▴) or absence (▪) of 100-fold molar excess PMPA. After 2× washes, cells were incubated an additional 66 h in fresh medium at 37° C. Cell viability was then analyzed using the [3H]-thymidine incorporation assay, as described herein. Data were obtained in a single experiment and error bars represent s.d. (n=3 wells per concentration).
(In general: Incorporation of labelled thymidine or its analogues reports DNA synthesis.)

Data set [5] is described as follows: Single dose toxicity in live mice. Particulars: mouse, in vivo, single dosing. An excerpt: Single dose toxicity in live mice. Administration of SK71 was in a single dose as indicated. […] (See FIG. 9A)
For data set [6], the system named is LNCaP tumors. In words: Efficacy study compared to control group and competition group. The data set is classed as in vivo, mouse. How it is done:
Efficacy study compared to control group and competition group. Animals were treated with (a) the conjugate SK71 administered in 5 doses on alternate days (M, W, F, M, W) at […], and compared to (b) vehicle treated animals (FIG. 10B), and to (c) animals treated with the conjugate in conjunction with PMPA. […] The competition experiments (See FIG. 10C) indicate that the successful treatment of the implanted tumor is related to selective or specific targeting of PSMA mediated delivery.

A short description of data set [7]: Multiple dose toxicity in live mice. The class given is in vivo, mouse. How it is done: Multiple dose toxicity in live mice. SK71 was administered in 5 doses on alternate days (M, W, F, M, W). […] (See FIG. 9B)

Each structure is given as a SMILES string. Like-named read-outs stand apart in the source and are kept apart here. *1 amine or outer side, *2 acyl side, *3 side chain or, on linkers, in order; H or OH if unused. Where a SMILES comes first, the peptide text is derived from it. Side-chain parts run from the residue outwards. [ ]: non-standard residue; d: D form. γGlu = O=C(O)[C@H](CCC(=O)[*:2])N[*:1]; Dap = NC[C@H](N)C(=O)O; Aoc = NCCCCCCCC(=O)O; CO = O=C([*:1])[*:2]

Broadly, the Ki is the dissociation constant of the complex between target and ligand, obtained from inhibition or displacement. Usually IC50 stands for the concentration that gives 50% inhibition. Read a low IC50 as greater potency.

PSMA, sequence (Q04609 whole entry, species assumed): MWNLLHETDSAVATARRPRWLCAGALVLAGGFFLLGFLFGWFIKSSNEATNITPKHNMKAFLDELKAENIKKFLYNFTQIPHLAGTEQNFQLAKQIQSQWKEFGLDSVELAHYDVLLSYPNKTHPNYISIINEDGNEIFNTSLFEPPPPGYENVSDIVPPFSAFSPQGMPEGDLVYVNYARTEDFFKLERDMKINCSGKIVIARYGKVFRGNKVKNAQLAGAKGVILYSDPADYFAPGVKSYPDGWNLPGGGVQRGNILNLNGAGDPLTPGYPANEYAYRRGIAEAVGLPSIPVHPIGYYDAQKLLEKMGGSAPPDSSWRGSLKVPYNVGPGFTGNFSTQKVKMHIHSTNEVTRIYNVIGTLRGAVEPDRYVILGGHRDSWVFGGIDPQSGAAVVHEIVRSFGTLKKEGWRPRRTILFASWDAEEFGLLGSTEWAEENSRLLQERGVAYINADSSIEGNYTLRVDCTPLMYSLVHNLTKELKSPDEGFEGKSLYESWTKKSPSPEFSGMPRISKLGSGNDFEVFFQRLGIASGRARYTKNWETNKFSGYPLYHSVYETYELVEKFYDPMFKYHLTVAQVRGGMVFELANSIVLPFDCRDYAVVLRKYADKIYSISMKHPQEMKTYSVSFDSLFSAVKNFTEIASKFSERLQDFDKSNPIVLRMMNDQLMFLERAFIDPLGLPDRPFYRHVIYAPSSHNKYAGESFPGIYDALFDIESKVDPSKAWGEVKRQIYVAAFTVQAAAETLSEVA

With `O=C(O)CCC(NC(=O)NC(CCC(=O)O)C(=O)O)C(=O)O` (centres unmarked), on PSMA, the Ki is 0.008 µM.
For `O=C(O)CCC(NC(=O)NC(CCC(=O)O)c1nnn[nH]1)C(=O)O` (centres unmarked), the Ki on PSMA is 0.335 µM.
For `N[C@@H](CNC(=O)[C@H](Cc1ccccc1)NC(=O)[C@H](Cc1ccccc1)NC(=O)CCCCCCCNC(=O)CC[C@H](NC(=O)N[C@@H](CCC(=O)O)C(=O)O)C(=O)O)C(=O)N[C@@H](CC(=O)O)C(=O)N[C@@H](CS)C(=O)O` [SK28-^99mTc, metal not drawn] (H-[Dap]([Phe-Phe-Aoc-γGlu-CO-Glu])-Asp-Cys-OH), the “cell bound radioactivity at the saturation point” value is recorded as 12 000 cpm with LNCaP cells [1] (4° C.) and 33,000 cpm in the data set on LNCaP cells [1] (37° C.). In the data set with LNCaP tumors [2] (LNCaP tumors, prior administration of 100-fold molar excess PMPA), the “tumor uptake after PMPA block” value was “no DUPA-99 mTc uptake”. Besides, the “distribution of retained radiotracer (gamma scintigraphy)” value with LNCaP tumors [2] (nude mice bearing LNCaP tumors, 4 h after i.p. injection, without PMPA) is on record as “accumulated mainly in the PSMA positive LNCaP tumor”. The “distribution of radioactivity (imaging)” value with LNCaP tumors [3] is on record as “distribution was limited to kidneys”. The radioactivity in tumor entry in the data set on A549 tumors and in the data set with KB tumors was “no radioactivity was observed” in each case.
As to `CC[C@@]1(OC(=O)OCCSSC[C@H](NC(=O)[C@H](CC(=O)O)NC(=O)[C@@H](N)CNC(=O)[C@H](Cc2ccccc2)NC(=O)[C@H](Cc2ccccc2)NC(=O)CCCCCCCNC(=O)CC[C@H](NC(=O)N[C@@H](CCC(=O)O)C(=O)O)C(=O)O)C(=O)O)C(=O)OCc2c1cc1n(c2=O)Cc2cc3ccccc3nc2-1` [SK45], in the data set with LNCaP cells [4], the IC50 was ~0.029 µM.
Regarding `CCCC(=O)OCN(C(=O)[C@@H](NC(=O)[C@H]1CCCCN1C)C(C)CC)[C@H](C[C@@H](OC(C)=O)c1nc(C(=O)N[C@@H](Cc2ccc(O)cc2)C[C@H](C)C(=O)NNC(=O)OCCSSC[C@H](NC(=O)[C@H](Cc2ccccc2)NC(=O)[C@H](CC(=O)O)NC(=O)CC[C@H](NC(=O)CC[C@H](NC(=O)N[C@@H](CCC(=O)O)C(=O)O)C(=O)O)C(=O)O)C(=O)O)cs1)C(C)C` (some centres unmarked) [SK71], the MTD in [5] is ~4.5 µmol/kg; in [7] (mouse, in vivo, multiple dosing, 5 doses on alternate days, mice), 2 µmol/kg. The “tumor size during treatment” value in the data set on LNCaP tumors [6] (1 μmol/kg, 5 doses on alternate days, starting tumor size approximately 250 mm3) was “successive decrease in tumor size”. The “tumor volume after dosing” value in the data set with LNCaP tumors [6] (1 μmol/kg, at the cessation of dosing) is given as “tumor volumes rebounded”. Moreover, the “tumor response at higher dose” value with LNCaP tumors [6] (at least 2 μmol/kg, during the testing period) is “complete disappearance of the tumor”. For the same compound, in data set [7] (LNCaP tumors, 2 and 4 μmol/kg groups, after 18 days of treatment), the visible tumors result is given as “no mice in the two treated groups had visible tumors”. The IC50 in the data set on LNCaP cells [4] was ~0.002 µM.
